Measured values: patent US20110250133A1, “GASTRIN […] PEPTIDE COMPOUNDS” (priority 2003, published 2011)

Experiments:
NMB-R = target: T1, NMB-R (Rattus norvegicus, UniProt P24053); assay: Competition with 125I-NMB for NMB-R in C6 cells (linker specificity); type: binding, rodent; conditions: for receptor subtype preference (GRP-R vs NMB-R): from IC50 with 125I-NMB (C6) and 125I-BBN (PC3), cut off 10x the IC50 of [Tyr4]-BBN; for GRP-R and NMB-R (binds both) / GRP-R (GRP-R preferring): yes / —, cut off 10x the IC50 of [Tyr4]-BBN with 125I-NMB on C6 cells;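 as to all read-outs here: test cells: rodent glioblastoma C6 line carrying NMB-R, human prostate cancer PC3 line carrying GRP-R, affinity fitted by one-site competition nonlinear regression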
T1 construct: C6, an NMB-R expressing rodent glioblastoma cell line; host or cells: C6 glioblastoma cells, intact adherent cells
T1 sequence (P24053 1-390): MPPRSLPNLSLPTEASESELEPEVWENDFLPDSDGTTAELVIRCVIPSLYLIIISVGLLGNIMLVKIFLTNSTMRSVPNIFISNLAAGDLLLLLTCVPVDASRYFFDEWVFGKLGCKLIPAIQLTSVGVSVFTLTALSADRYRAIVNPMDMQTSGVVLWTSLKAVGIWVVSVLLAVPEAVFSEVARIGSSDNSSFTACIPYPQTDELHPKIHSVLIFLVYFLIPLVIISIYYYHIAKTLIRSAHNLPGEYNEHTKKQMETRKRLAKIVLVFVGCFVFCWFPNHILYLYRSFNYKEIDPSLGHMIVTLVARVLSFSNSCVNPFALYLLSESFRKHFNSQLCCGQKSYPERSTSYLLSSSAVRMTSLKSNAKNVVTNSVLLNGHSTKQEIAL
Protocol: Two cell lines, C6, an NMB-R expressing rodent glioblastoma cell line and PC3, a GRP-R expressing human prostate cancer cell line, were used in this assay. The affinity of various unlabeled compounds for each receptor subtype (NMB-R and GRP-R) was determined indirectly by measuring its ability to compete with the binding of ^125I-NMB or ^125I-BBN to its corresponding receptors in C6 and PC3 cells.
Cells for the assays were plated at a concentration of 9.6×10^4/well in 48 well poly-lysine coated plates (Beckton Dickinson Biocoat). PC3 were obtained from ATCC(CRL-1435) and cultured in RPMI 1640 (ATCC) supplemented with 2 mM L-glutamine, 1.5 g/L Sodium bicarbonate, 10 mM HEPES and 10% FBS. […] PC3 cells for the assays were plated at a concentration of 2.0×10^4 cells/well in 96-well white/clear bottom plates (Falcon Optilux-I). Plates were used for the assays on day 2 of the post-plating.
RPMI 1640 (ATCC) containing 25 mM HEPES, 0.2% BSA fraction V, 1.0 mM AEBSF (CAS # 3087-99-7) and 0.1% Bacitracin (CAS # 1405-87-4), pH 7.4. Custom made ^125I-[Tyr^0]NMB, >2.0 Ci/μmole (Amersham Life Science) [^125I-NMB] and commercially available ^125I-[Tyr^4]BBN, >2.0 Ci/μmole (Perkin Elmer Life Science) [^125I-BBN] were used as radioligands.
Using a 48-well plate assay system (for C6 study) competition experiments were performed using ^125I-NMB. […] Selection of compounds for the assay was based on linker subtype.
The binding parameters obtained from the studies were analyzed using a one-site competition non-linear regression analysis with GraphPad Prism. The relative affinity of various compounds for NMB-R in C6 cells were compared with those obtained using commercially available [Tyr^4]-BBN and [Tyr^0]-NMB. To distinguish the GRP-R preferring compounds from NMB-R plus GRP-R preferring compounds, IC50 values obtained for each compound were compared with those obtained from [Tyr^4-BBN with ^125I-NMB on C6 cells.

[1] = tested on: PC-3 prostate cancer cells; assay: Effect of dasatinib on GRP receptor binding, proliferation and glucose uptake in PC-3 cells (single plate assay); type: cell-based, human; conditions: for % Change in 2-NBDG uptake / % change in 177Lu-AMBA uptake / % Change in Proliferation / 177Lu-AMBA uptake (Bmax fmoles/million cells): PC3 cells; for % Change in Proliferation: N = 4; for 177Lu-AMBA uptake (Bmax fmoles/million cells): control 266 (±23)
Protocol: The cells were plated on Day 0 (7.5 k/well 96-well PE Scintiplate). […] To determine the cell numbers and the proliferation, 100 uL of 10% CCK—F solution in DPBS (Molecular technologies) was added to the same plate, incubated for 30 min at 37° C. and the relative fluorescence (RFU) measured at 535 nm. Base on the cell numbers and the ^177Lu-binding, the Bmax (fmoles bound/million cells) was calculated, and the results compared with the control.
For the glucose uptake study, a fluorescently labeled 2-deoxyglucose derivative (2-NBDG) was used. After the dasatinib treatment as described above, the cells were incubated with 2-NBDG (200 uM) in binding buffer for 2 h at 37° C. and measured RFU at 530 nm. The cell numbers were determined using CCK—F as described above. Based on the cell numbers Bmax for glucose uptake was determined and compared with the control.

[2] = tested on: PC-3 prostate cancer cells; assay: Effect of drug treatment on GRP receptor binding (177Lu-AMBA) in PC-3 cells; type: cell-based, human; conditions: for decrease in 177Lu-AMBA binding (GRP receptor specific signal per cell): drug 0.1-1.0 μM (gefitinib 0.1-10 μM)
Protocol: (§1) RPMI 1640 supplemented with 20 mM HEPES, 0.1% BSA (w/v), 0.5 mM PMSF (AEBSF), bacitracin (50 mg/500 ml), pH 7.4.
(§2) Incubations were stopped by the addition of 200 μL of ice-cold binding buffer. Plates were washed three more times with binding buffer, 140 μL of scintillation fluid was added to each well, the plates were sealed and analyzed on a Microβ plate reader (Microbeta Trilux, Perkin-Elmer).
PC-3 (human prostate adenocarcinoma, bone metastasis, AR-, ER) were obtained from the American Type Culture Collection. The growth medium for PC-3 cells is RPMI 1640 (10-041-CM, Mediatech, Inc), supplemented with 10% heat inactivated FBS (Hyclone, SH30070.03) and PSF-1× (as in Example LXVI). The binding buffer, lapatinib solutions, treatment method and cell binding assay is the same as in Example LXVI.

[3] = tested on: BT-474 human breast cancer cells; assay: Effect of drug treatment on GRP receptor binding (177Lu-AMBA) in BT-474 cells; type: cell-based; conditions: for decrease in 177Lu-AMBA binding (GRP receptor specific signal per cell): drug 0.1-1.0 μM (4-OH Tamoxifen 0.001-0.1 μM); for change in GRP receptor specific signal per cell (177Lu-AMBA binding): drug 0.1-1.0 μM (gefitinib 0.1-10 μM); for change in 177Lu-AMBA uptake (GRP-R) on a viable cell basis, BT-474: ↑ increase, ↓ decrease vs untreated
Protocol: BT-474 breast cancer cells (human primary invasive ductal carcinoma; ER+, PR+, amplified HER2/neu+) were obtained from the American Type Culture Collection. The growth medium for BT-474 cells is Hybri-care Medium (Cat No: 46X, ATCC) supplemented with 10% heat inactivated FBS (Hyclone, SH30070.03), 0.2% NaHCO3, and antibiotic/antimycotic “PSF-1×” (GibcoBRL, 15240-062) for a final concentration of penicillin-streptomycin (1×, 100 units/mL), and fungizone (0.25 μg/mL). […] Cells for binding experiments were plated on Day 0 at 5.6×10^4 cells/cm^2 in 96-well white/clear bottom microtiter plates (Falcon Optilux-I), or 96 well black/clear collagen I cellware plates (Beckton Dickinson Biocoat).
as §1, §2
Treatment: BT-474 cells were plated on Day 0 and treated on Days 1 and 2 (DT1, DT2).

[4] = tested on: T47D human breast cancer cells; assay: Effect of drug treatment on GRP receptor binding (177Lu-AMBA) in T47D cells; type: cell-based; conditions: for increase in 177Lu-AMBA binding (GRP receptor specific signal per cell): drug 0.1-1.0 μM (gefitinib 0.1-10 μM)
Text: T-47D breast cancer cells (human metastatic mammary gland ductal adenocarcinoma isolated from pleural effusion, ER+, PR+) were obtained from the American Type Culture Collection.

PC3 cells = assay: Internalization and efflux assay in PC3 cells; type: cell-based, human; conditions: 125I-BBN or Lu-177 complexes
Protocol: These studies were conducted in a 96-well plate. […] Incubations were stopped by the addition of 200 μl of ice-cold binding buffer. Plates were washed twice with binding buffer. To remove surface-bound radioligand, the cells were incubated with 0.2M acetic acid (in saline), pH 2.8 for 2 min. Plates were centrifuged and the acid wash media were collected to determine the amount of radioactivity which was not internalized. The cells were collected to determine the amount of internalized ^125I-BBN, and all samples were analyzed in the gamma counter. Data for the internalization assay was normalized by comparing counts obtained at the various time points with the counts obtained at the final time point (T=40 min).
For the efflux studies, after loading the PC3 cells with ^125I-BBN or radiolabeled compounds of the invention for 40 min at 37° C., the unbound material was filtered, and the % of internalization was determined as above. The cells were then resuspended in binding buffer at 37° C. for up to 3 h.

[5] = BT-474, relative to untreated control
[6] = T-47D, relative to untreated control
[7] = PC-3, relative to untreated control
[8] = drug 0.1-1.0 μM, ↑ increase, ↓ decrease vs untreated

Substance: Gln-Trp-Ala-Val-Gly-His-Leu-Met-NH2 [BBN7-14]
- receptor subtype preference (GRP-R vs NMB-R) (NMB-R): did not show any preference
- receptor preference in words (GRP-R / GRP-R and NMB-R) (NMB-R; wrapped cell: 'No selective preference' or 'preference for NMB-R'): No selective

Substance: dasatinib
- % Change in 2-NBDG uptake ([1]; Dasatinib 1 nM): −4.3 (±4.6) %
- % change in 177Lu-AMBA uptake ([1]; Dasatinib 1 nM): 12.3 (±5.8) %
- % Change in Proliferation ([1]; Dasatinib 1 nM): −4.3 (±1.0) %
- 177Lu-AMBA uptake (Bmax fmoles/million cells) ([1]; Dasatinib 1 nM): 300 (±40) fmoles/million cells
- % Change in 2-NBDG uptake ([1]; Dasatinib 10 nM): −62.9 (±7.1) %
- % change in 177Lu-AMBA uptake ([1]; Dasatinib 10 nM): 45.4 (±8.1) %
- % Change in Proliferation ([1]; Dasatinib 10 nM): −11.2 (±5.9) %
- 177Lu-AMBA uptake (Bmax fmoles/million cells) ([1]; Dasatinib 10 nM): 387 (±46) fmoles/million cells
- % Change in 2-NBDG uptake ([1]; Dasatinib 100 nM): −67.8 (±15.8) %
- % change in 177Lu-AMBA uptake ([1]; Dasatinib 100 nM): 76.7 (±5.0) %
- % Change in Proliferation ([1]; Dasatinib 100 nM): −33.3 (±11.4) %
- 177Lu-AMBA uptake (Bmax fmoles/million cells) ([1]; Dasatinib 100 nM): 470 (±51) fmoles/million cells
- 177Lu-AMBA uptake, average Bmax ([1]; PC-3, 100 nM): ≤ 470 fmoles/million cells
- decrease of glucose uptake (2-NBDG) ([1]; PC-3, 100 nM): ≤ 67.8%
- inhibition of growth (cell proliferation) ([1]; PC-3, 100 nM): ≤ 33%
- increase in 177Lu-AMBA binding (GRP receptor specific signal per cell) ([2]; PC-3, relative to untreated control, drug 0.1-1.0 μM): up to 250%
- decrease in 177Lu-AMBA binding (GRP receptor specific signal per cell) [3, 5]: 10-15%
- increase in 177Lu-AMBA binding (GRP receptor specific signal per cell) [4, 6]: up to 500%

Substance: sorafenib
- decrease in 177Lu-AMBA binding (GRP receptor specific signal per cell) [2, 7]: 10-20%
- decrease in 177Lu-AMBA binding (GRP receptor specific signal per cell) [3, 5]: 10-25%
- change in GRP receptor specific signal per cell (177Lu-AMBA binding) ([4]; T-47D): no change
- change in 177Lu-AMBA uptake (GRP-R) on a viable cell basis, T47D [4, 8]: NC (NC: Little(<10%) or no change in Lu-AMBA uptake)

Substance: DO3A-monoamide-Abu4-QWAVGHLM-NH2
- receptor subtype preference (GRP-R vs NMB-R) (NMB-R): dual affinity for both GRP-R and NMB-R
- GRP-R and NMB-R (binds both) (NMB-R): yes

Substance: gefitinib
- decrease in 177Lu-AMBA binding (GRP receptor specific signal per cell) [2, 7]: 20-40%
- change in GRP receptor specific signal per cell (177Lu-AMBA binding) ([3]; BT-474): no change
- change in 177Lu-AMBA uptake (GRP-R) on a viable cell basis, BT-474 ([3]; drug 0.1-10 μM): NC (NC: Little(<10%) or no change in Lu-AMBA uptake)
- increase in 177Lu-AMBA binding (GRP receptor specific signal per cell) [4, 6]: up to 20%

Substance: erlotinib
- decrease in 177Lu-AMBA binding (GRP receptor specific signal per cell) [2, 7]: 5-20%
- change in GRP receptor specific signal per cell (177Lu-AMBA binding) ([3]; BT-474): no change
- change in 177Lu-AMBA uptake (GRP-R) on a viable cell basis, BT-474 ([3]; drug 0.1-1.0 μM): NC (NC: Little(<10%) or no change in Lu-AMBA uptake)
- increase in 177Lu-AMBA binding (GRP receptor specific signal per cell) [4, 6]: 5-20%

Substance: lapatinib
- change in proliferation ([2]; PC-3, 0.1-1.0 μM): no change
- change in GRP receptor specific signal per cell (177Lu-AMBA binding) ([2]; PC-3, drug 0.1-1.0 μM (4-OH Tamoxifen 0.001-0.1 μM)): no change
- change in 177Lu-AMBA uptake (GRP-R) on a viable cell basis, PC-3 [2, 8]: NC (NC: Little(<10%) or no change in Lu-AMBA uptake)
- decrease in cell proliferation ([3]; BT-474, highest concentration): ≤ 65%
- increase in 177Lu-AMBA binding (GRP receptor specific signal per cell) ([3]; BT-474, relative to untreated control, drug 0.1-1.0 μM (β2-estradiol 1 nM)): up to 140%
- decrease in cell proliferation ([4]; T-47D, highest concentration): ≤ 35%
- increase in 177Lu-AMBA binding (GRP receptor specific signal per cell) [4, 6]: up to 50%

Substance: DO3A-monoamide-Nal1-Bpa4-QWAVGHLM-NH2
- receptor subtype preference (GRP-R vs NMB-R) (NMB-R): selective affinity towards GRP-R
- GRP-R (GRP-R preferring) (NMB-R): yes

Substance: DO3A-monoamide-Cha-Cha-QWAVGHLM-NH2
- receptor subtype preference (GRP-R vs NMB-R) (NMB-R): selective affinity towards GRP-R
- GRP-R (GRP-R preferring) (NMB-R): yes

Substance: DO3A-monoamide-Aoc-QWAVGHLM-NH2
- Internalisation (40 minutes) (PC3 cells; 40 min at 37° C.): 89%
- Efflux (2 h) (PC3 cells; 2 h at 37° C. after 40 min loading): 28%

Substance: anastrozole
- decrease in 177Lu-AMBA binding (GRP receptor specific signal per cell) [2, 7]: up to 10%
- change in GRP receptor specific signal per cell (177Lu-AMBA binding) ([3]; BT-474): no change
- change in 177Lu-AMBA uptake (GRP-R) on a viable cell basis, BT-474 ([3]; drug 0.1-1.0 μM): NC (NC: Little(<10%) or no change in Lu-AMBA uptake)
- decrease in 177Lu-AMBA binding (GRP receptor specific signal per cell) ([4]; T-47D, relative to untreated control, drug 0.1-1.0 μM (4-OH Tamoxifen 0.001-0.1 μM)): up to 10%

Substance: DO3A-monoamide-Aoc-QWAVGHL-Nle-NH2
- receptor subtype preference (GRP-R vs NMB-R) (NMB-R): dual affinity for both GRP-R and NMB-R
- GRP-R and NMB-R (binds both) (NMB-R): Yes
